Test results reported in US8076297B2, “Pharmaceutical composition containing polypeptide fragments of serralysins” (Centro De Ingenieria Genetica Y Biotecnologia, priority 2004, dated 2011).

Tested on: HEp-2 cells
Assay: Anti-proliferative assay on HEp-2 cells, MTT method
Format: cell-based, human
Details: for proliferation: 3 μg/mL; for effect on proliferation: same conditions as 3 μg/mL comparison
Method: For the characterization of the antiproliferative activity of MG2327 “in vitro” a panel of human cell lines was evaluated (table 1). A total of 2000 cells, except for PBMC (20000), were seeded in 96 wells culture wells, and different concentrations of MG2327 were added. After 72 hours, the number of survival cells was estimated by addition of MTT (Skehan, P., Storeng, R., Scudiero, D., Monks, A., Mcmahon, J., Vistica, D., Warren, J. T., Bokesch, H., Kenney, S. and BOYD, M. R. 1990. J Natl Cancer Inst. 82:1107). The soluble formazan products were detected at 540 nm in a multiscan plate reader.

| Compound | proliferation | effect on proliferation |
| --- | --- | --- |
| COc1cccc2c1C(=O)c1c(O)c3c(c(O)c1C2=O)C[C@@](O)(C(=O)CO)C[C@@H]3O[C@H]1C[C@H](N)[C@H](O)[C@H](C)O1 [DXR, Doxorubicine, reference compound] | 40% |  |
| O=P1(N(CCCl)CCCl)NCCCO1 (stereo not drawn) [Ciclophosfamide, reference compound] |  | do not showed effect |
| N.N.[Cl][Pt][Cl] [Cisplatin, reference compound] | 40% |  |
| CC(=O)O[C@H]1C(=O)[C@@]2(C)[C@H]([C@H](OC(=O)c3ccccc3)[C@]3(O)C[C@H](OC(=O)[C@H](O)[C@@H](NC(=O)c4ccccc4)c4ccccc4)C(C)=C1C3(C)C)[C@]1(OC(C)=O)CO[C@@H]1C[C@@H]2O [Taxol, reference compound] | 40% |  |
| Bleomicine [reference compound] |  | do not showed effect |
| CC[C@]1(O)C[C@@H]2CN(CCc3c([nH]c4ccccc34)[C@@](C(=O)OC)(c3cc4c(cc3OC)N(C)[C@H]3[C@@](O)(C(=O)OC)[C@H](OC(C)=O)[C@]5(CC)C=CCN6CC[C@]43[C@@H]65)C2)C1 [Vinvlastine, reference compound] | 40% |  |
| CC[C@]1(O)C[C@H]2CN(CCc3c([nH]c4ccccc34)[C@@](C(=O)OC)(c3cc4c(cc3OC)N(C=O)[C@H]3[C@@](O)(C(=O)OC)[C@H](OC(C)=O)[C@]5(CC)C=CCN6CC[C@]43[C@@H]65)C2)C1 [Vincristine, reference compound] | 40% |  |
| Nc1ccn([C@@H]2O[C@H](CO)[C@@H](O)[C@@H]2O)c(=O)n1 [Ara C, reference compound] |  | do not showed effect |
| CN(Cc1cnc2nc(N)nc(N)c2n1)c1ccc(C(=O)N[C@@H](CCC(=O)O)C(=O)O)cc1 [Metotrexate, reference compound] |  | do not showed effect |
